The results in this text go back to patent US10227324B2 (Shanghai Haiyan Pharmaceutical Technology Co., Ltd., priority 2014, dated 2019).

One assay relates to NIH3T3 cells. Briefly: Cytotoxicity by MTT assay, NIH3T3. Format: cell-based. To be noted: Mus musculus, NIH3T3, 72 h, cytotoxicity class, read-out: NIH3T3 cell (IC50/nM). On the procedure: The MTT assay procedure and steps were carried out as well known to those skilled in the art, and all the reagents used in the methods were commercially available.
(§1) The cells in logarithmic growth phase were digested with 0.25% EDTA trypsin (Gibco, 25200-056) and resuspended in fresh medium. 90 μL of the cell suspension was inoculated into a 96-well cell culture plate (BD Faclon 353072) with a suitable cell density and cultured at 37° C. under 5% CO2. After the cells adhered, 10 μL of the test compound at different concentrations (0.0046-10 μM, 8 concentration points) was added and incubated for another 72 h. 10 μL of MTT (5 mg/mL PBS solution) (Sigma, M5655) was added to react for 4 h. The absorbance at 492 nm was measured by using Thermo Scientific Multiskan MK3 microplate reader and IC50 was calculated using XLFIT 5.0 software (UK IDBS).
(Tetrazolium dyes change colour on reduction, which living cells bring about.)

Assay [1] concerns the target T1, PI3K-α kinase (p110α/p85α) (Homo sapiens, UniProt P42336).
T1 construct: purchased Invitrogen PV4788
Briefly: Determination of PI3K kinase activity (ADP Transcreener, fluorescence polarization). To be noted: ATP 10 μM. The format is biochemical. On the procedure: (§2) The inhibition of PI3K kinase activity by the compound to be tested was determined by the following method. The working concentration of each component in the 25 μL enzyme reaction system was: p110α/p85α 3 ng (or p110β/p85α 60 ng, or p110δ/p85α 90 ng, or p110γ 100 ng), ATP 10 μM, PIP2: PS (Invitrogen PV5100) 30 μM and the DMSO concentration was 2% after addition of the compound to be tested.
(§3) At the time of the test, the compound to be tested was dissolved in dimethylsulfoxide (DMSO) according to the desired concentration of the experiment. The compound to be tested was gradiently diluted 3 times (0.00046-1 μM, 8 concentration points) with 10% DMSO. 5 μL of the compound to be tested was added to each well of a 96-well plate (Greiner 675076) in duplicate. […] 10 μL of ATP/PIP2: PS and 10 μL of the PI3K enzyme working solution were added to each well in a 96-well plate. The plate was shaken and mixed uniformly, and then incubated at 25° C. for 1 hour. At the same time, ADP and ATP (0.01 μM, 0.02 μM, 0.04 μM, 0.06 μM, 0.08 μM[…], 0.1 μM, 0.25 μM, 0.5 μM, 1 μM, 2 μM, 5 μM, 10 μM, 12 concentration points) were diluted with buffer to set the standard curve. After completion of the enzyme reaction, 25 μL of ADP assay solution (1% 100×ADP tracer, 0.79% ADP antibody and 10% 10× reaction stop solution) was added and incubated at 25° C. for 1 hour. Fluorescence polarization value [mP] of each well was measured with a Perkin Elmer Victor X5 Fluorescent Microplate. The ADP concentration [ADP] was calculated from the ADP/ATP standard curve and the IC50 values were calculated using the XLFit software.
A general note: In fluorescence polarisation assays a small probe gives low polarisation when free and higher when bound to something large.

The test system of assay [2] is Akt phosphorylation (Ser473-p-Akt) in PC-3 cells. Nature of the assay: Inhibition of p-Akt phosphorylation level in PC-3 cells (cell level fluorescence imaging). Format: cell-based. The following applies: Homo sapiens; Akt phosphorylation in PC-3 cells, 2 hours incubation; read-out: PC-3 cell (IC50/nM). On the procedure:
This experiment was performed by cell level fluorescence image processing method.
Triton X-100: 10% aqueous Triton X-100 solution (Sigma T8787-100 mL) was prepared, stored at 4° C. and diluted by 1:100 to give 0.1% Triton X-100 aqueous solution for use in the experiment.
Prodium Iodide (PI): 1 mg/mL (1.5 mM) PI (Sigma P4170) storage solution was prepared with PBS and stored at −25° C. in the dark. For use, the PI storage solution was diluted with PBS by 1:1000 to give a 1.5 μM solution and used in dark.
PC-3 cells in logarithmic growth phase were digested with 0.25% EDTA trypsin. 3000 cells/90 μL were seeded in a 96-well plate (BD 356692) and cultured at 37° C. and 5% CO2. After the cells adhered, 10 μL of the compound to be tested which was gradiently diluted 3 times (0.0046 to 10 μM, 8 concentration points, in duplicate) was added and incubated for 2 hours, followed by addition of 100 μL of 4% paraformaldehyde (DINGGUO AR-0211) and incubated at room temperature for 45 minutes. Then 100 μL of 0.1% Triton X-100 solution was added and incubated for another 30 minutes.
Triton X-100 solution was removed and the cells were rinsed with 200 μl of PBS twice (300 rpm vibration for 1 minute). The blocking solution (1% BSA solution in PBS) (Genview FA016-100G) was added and incubated at room temperature for 2 hours. The plate was rinsed with PBS once (300 rpm, 1 min) and 30 μL of Ser473-p-Akt antibody (cell signaling 4060L) diluted with 0.1% BSA was added and incubated overnight at 4° C. Ser473-p-Akt antibody was removed and the plate was rinsed with PBS twice (300 rpm, 1 minute). 35 μL of Alexa Flour 488 donkey anti-rabbit IgG (Invitrogen A21206) was added and incubated at room temperature for 1.5 hours. The plate was rinsed with PBS twice (300 rpm, 1 minute) and 35 μL of 1.5 μM PI was added and incubated at room temperature for 0.5 h. The fluorescence intensity was measured with Acumen eX3 (TTP LabTech).
10 μM BEZ235 (Selleck S1009) treatment group was negative control and DMSO treatment group was positive control. Inhibition ratio %=[1−(the mean value of the fluorescence intensity of the compound to be tested−the mean value of the fluorescence intensity of the negative control group)/(the mean value of the fluorescence intensity of the positive control group−the mean value of the fluorescence intensity of the negative control group)]×100%

The next assay has as its system MCF-7 cells. Nature of the assay: Cell inhibitory activity detected by MTT assay, MCF-7. Format: cell-based. The following applies: Homo sapiens, MCF7, 72 h, read-out: MCF-7 cell (IC50/nM), cell growth inhibition. How it is done: as §1, with “The MTT assay procedure and steps were carried out as well known to those skilled in the art, and all the reagents used in the methods were commercially available. The cells” for “The cells”, “(UK IDBS). MCF-7 cell culture medium: DMEM medium (Hyclone SH30243.01B+10% FBS (Gibco 10099-141)” for “(UK IDBS).”

In assay [3] the target is T2, PI3K-β kinase (p110β/p85α) (Homo sapiens, UniProt P42338).
T2 construct: purchased Millipore 14-603
Nature of the assay: Determination of PI3K kinase activity (ADP Transcreener, fluorescence polarization). The format is biochemical. To be noted: Table 1; ATP 10 μM; read-out: PI3K-β/nM (IC50 of inhibitory activity against PI3K kinase). How it is done: as §2, §3

Assay [4] addresses T3, PI3K-δ kinase (p110δ/p85α) (Homo sapiens, UniProt O00329).
T3 construct: purchased Millipore 14-604M
The assay is described as above. Format: biochemical. To be noted: Table 1; ATP 10 μM; read-out: PI3K-δ/nM (IC50 of inhibitory activity against PI3K kinase). How it is done: as §2, §3

In a further assay the target is T4, PI3K-γ kinase (p110γ) (Homo sapiens, UniProt P48736).
T4 construct: purchased Invitrogen PV4786
The description is as above. The format is biochemical. To be noted: Table 1; ATP 10 μM; read-out: PI3K-γ/nM (IC50 of inhibitory activity against PI3K kinase). How it is done:
The PI3K kinase used in the experiment: p110α/p85α (Invitrogen PV4788), p110β/p85α (Millipore 14-603), p110δ/p85α (Millipore 14-604M), and p110γ (Invitrogen PV4786).
as §2
as §3, with “duplicate. 2.5× buffer was prepared and 1 μL of DTT (Millipore 20-265) was added to each 800 μL of 2.5× buffer.” for “duplicate.”

A further assay has as its system T47D cells. Nature of the assay: Cell inhibitory activity detected by MTT assay, T47D. The format is cell-based. To be noted: Homo sapiens, T47D, 72 h, read-out: T47D cell (IC50/nM), cell growth inhibition. How it is done: as §1, with “The MTT assay procedure and steps were carried out as well known to those skilled in the art, and all the reagents used in the methods were commercially available. The cells” for “The cells”, “(UK IDBS). T47D cell culture medium: RPMI-1640 medium (Hyclone SH30809.01B)+10% FBS (Gibco 10099-141)” for “(UK IDBS).”

The mark [5] stands for this setting: Table 1, read-out: PI3K-α/nM (IC50 of inhibitory activity against PI3K kinase).

SMILES strings stand for the structures. Where two headings read alike, the source gives them in different places.

T1 sequence (P42336 whole entry): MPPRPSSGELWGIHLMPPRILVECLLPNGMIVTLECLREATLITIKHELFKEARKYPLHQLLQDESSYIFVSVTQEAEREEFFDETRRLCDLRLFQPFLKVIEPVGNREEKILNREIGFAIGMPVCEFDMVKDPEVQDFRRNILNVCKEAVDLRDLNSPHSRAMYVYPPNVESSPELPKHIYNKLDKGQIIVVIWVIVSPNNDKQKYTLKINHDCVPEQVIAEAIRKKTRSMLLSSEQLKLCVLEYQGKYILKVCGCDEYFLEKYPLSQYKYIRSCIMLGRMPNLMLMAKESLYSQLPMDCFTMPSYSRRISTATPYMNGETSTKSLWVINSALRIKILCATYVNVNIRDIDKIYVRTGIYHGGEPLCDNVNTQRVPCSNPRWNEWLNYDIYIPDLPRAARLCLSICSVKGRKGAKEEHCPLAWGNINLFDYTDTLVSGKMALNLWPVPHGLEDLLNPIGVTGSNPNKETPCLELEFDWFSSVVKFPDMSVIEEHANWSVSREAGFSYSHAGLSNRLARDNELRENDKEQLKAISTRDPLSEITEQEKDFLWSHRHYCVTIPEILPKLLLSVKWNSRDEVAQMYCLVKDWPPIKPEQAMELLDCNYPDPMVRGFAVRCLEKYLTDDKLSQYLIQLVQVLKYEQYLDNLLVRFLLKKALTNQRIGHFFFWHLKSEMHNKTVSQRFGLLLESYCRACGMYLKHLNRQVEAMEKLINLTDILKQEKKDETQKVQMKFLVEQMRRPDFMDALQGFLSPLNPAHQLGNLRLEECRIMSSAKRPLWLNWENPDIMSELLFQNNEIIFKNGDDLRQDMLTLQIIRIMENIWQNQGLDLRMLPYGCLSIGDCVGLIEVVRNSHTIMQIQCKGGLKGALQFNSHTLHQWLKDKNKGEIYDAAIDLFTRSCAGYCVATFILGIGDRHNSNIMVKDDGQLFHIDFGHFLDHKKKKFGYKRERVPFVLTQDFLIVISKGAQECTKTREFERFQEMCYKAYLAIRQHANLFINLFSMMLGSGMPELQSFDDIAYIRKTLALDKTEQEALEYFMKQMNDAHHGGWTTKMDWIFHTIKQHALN
T1 sequence (P27986 whole entry partner): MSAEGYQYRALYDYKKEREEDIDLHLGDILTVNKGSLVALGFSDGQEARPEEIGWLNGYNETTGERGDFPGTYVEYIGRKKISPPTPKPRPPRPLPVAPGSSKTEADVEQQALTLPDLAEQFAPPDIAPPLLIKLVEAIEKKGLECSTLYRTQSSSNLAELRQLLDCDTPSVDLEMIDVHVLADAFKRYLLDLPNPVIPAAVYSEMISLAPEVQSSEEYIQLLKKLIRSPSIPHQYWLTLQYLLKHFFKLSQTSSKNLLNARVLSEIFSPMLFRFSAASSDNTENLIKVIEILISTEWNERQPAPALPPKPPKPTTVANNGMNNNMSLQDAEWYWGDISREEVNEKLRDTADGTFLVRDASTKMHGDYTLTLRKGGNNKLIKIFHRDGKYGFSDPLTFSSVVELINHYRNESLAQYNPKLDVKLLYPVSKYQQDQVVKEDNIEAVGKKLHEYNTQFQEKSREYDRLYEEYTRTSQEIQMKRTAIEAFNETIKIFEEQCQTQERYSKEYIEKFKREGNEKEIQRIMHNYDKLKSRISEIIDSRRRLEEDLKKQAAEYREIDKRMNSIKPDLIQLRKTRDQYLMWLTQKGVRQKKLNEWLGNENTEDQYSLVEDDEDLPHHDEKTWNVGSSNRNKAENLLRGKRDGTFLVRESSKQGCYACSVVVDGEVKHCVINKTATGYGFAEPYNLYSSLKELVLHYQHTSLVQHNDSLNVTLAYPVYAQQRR
T3 sequence (O00329 whole entry): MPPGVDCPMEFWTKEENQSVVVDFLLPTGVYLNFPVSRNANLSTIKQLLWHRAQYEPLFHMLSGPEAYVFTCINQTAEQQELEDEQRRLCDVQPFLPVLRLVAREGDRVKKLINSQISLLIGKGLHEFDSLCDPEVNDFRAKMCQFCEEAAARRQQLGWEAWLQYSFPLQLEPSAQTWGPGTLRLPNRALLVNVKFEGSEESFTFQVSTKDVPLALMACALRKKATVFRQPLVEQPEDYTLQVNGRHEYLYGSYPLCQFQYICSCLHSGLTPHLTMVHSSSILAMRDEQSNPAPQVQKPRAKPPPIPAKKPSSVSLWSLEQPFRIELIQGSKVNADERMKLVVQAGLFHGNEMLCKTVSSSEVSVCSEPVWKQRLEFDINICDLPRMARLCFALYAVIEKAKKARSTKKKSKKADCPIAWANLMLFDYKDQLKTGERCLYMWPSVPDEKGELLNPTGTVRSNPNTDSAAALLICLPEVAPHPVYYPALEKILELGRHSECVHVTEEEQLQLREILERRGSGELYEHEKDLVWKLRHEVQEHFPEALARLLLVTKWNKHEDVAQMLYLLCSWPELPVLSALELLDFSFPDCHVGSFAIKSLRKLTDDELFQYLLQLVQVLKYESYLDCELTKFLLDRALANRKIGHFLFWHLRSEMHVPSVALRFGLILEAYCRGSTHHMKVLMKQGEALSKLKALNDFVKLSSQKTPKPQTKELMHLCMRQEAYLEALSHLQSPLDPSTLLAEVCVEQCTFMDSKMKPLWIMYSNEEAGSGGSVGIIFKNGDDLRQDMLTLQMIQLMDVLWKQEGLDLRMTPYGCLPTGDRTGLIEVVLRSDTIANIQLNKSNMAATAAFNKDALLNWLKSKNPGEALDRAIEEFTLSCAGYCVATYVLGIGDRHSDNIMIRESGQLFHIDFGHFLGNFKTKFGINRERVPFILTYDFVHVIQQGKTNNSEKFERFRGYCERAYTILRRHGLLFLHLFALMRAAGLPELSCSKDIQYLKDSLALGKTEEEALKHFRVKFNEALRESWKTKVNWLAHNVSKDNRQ
T3 sequence (P27986 whole entry partner): as the sequence (P27986 whole entry partner) above
T2 sequence (P42338 whole entry): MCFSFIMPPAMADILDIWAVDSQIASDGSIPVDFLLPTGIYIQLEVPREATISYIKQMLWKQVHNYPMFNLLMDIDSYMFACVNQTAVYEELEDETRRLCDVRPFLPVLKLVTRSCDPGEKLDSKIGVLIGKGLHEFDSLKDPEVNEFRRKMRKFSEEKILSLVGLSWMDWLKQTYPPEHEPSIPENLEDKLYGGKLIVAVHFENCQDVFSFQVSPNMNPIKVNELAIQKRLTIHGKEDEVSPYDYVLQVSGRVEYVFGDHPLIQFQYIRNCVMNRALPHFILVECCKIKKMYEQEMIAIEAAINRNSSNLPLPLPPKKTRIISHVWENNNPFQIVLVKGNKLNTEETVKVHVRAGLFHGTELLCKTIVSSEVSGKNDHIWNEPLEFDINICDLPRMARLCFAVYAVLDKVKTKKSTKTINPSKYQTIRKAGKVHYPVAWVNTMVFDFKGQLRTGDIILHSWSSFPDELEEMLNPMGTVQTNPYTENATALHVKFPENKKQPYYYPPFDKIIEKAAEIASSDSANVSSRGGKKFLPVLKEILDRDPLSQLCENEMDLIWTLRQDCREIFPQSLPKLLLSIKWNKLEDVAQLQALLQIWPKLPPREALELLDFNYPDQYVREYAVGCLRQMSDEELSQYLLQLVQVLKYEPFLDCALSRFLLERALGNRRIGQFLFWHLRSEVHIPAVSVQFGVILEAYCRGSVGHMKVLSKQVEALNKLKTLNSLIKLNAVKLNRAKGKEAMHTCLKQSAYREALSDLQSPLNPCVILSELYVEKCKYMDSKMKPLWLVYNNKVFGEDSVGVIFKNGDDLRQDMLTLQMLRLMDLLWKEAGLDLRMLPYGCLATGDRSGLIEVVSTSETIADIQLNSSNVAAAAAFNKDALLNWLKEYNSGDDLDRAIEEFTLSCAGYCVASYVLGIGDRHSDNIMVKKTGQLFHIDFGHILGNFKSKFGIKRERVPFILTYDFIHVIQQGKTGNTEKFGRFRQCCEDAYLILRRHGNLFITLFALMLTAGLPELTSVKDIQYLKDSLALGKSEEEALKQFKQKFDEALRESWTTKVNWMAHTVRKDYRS
T2 sequence (P27986 whole entry partner): as the sequence (P27986 whole entry partner) above
T4 sequence (P48736 whole entry): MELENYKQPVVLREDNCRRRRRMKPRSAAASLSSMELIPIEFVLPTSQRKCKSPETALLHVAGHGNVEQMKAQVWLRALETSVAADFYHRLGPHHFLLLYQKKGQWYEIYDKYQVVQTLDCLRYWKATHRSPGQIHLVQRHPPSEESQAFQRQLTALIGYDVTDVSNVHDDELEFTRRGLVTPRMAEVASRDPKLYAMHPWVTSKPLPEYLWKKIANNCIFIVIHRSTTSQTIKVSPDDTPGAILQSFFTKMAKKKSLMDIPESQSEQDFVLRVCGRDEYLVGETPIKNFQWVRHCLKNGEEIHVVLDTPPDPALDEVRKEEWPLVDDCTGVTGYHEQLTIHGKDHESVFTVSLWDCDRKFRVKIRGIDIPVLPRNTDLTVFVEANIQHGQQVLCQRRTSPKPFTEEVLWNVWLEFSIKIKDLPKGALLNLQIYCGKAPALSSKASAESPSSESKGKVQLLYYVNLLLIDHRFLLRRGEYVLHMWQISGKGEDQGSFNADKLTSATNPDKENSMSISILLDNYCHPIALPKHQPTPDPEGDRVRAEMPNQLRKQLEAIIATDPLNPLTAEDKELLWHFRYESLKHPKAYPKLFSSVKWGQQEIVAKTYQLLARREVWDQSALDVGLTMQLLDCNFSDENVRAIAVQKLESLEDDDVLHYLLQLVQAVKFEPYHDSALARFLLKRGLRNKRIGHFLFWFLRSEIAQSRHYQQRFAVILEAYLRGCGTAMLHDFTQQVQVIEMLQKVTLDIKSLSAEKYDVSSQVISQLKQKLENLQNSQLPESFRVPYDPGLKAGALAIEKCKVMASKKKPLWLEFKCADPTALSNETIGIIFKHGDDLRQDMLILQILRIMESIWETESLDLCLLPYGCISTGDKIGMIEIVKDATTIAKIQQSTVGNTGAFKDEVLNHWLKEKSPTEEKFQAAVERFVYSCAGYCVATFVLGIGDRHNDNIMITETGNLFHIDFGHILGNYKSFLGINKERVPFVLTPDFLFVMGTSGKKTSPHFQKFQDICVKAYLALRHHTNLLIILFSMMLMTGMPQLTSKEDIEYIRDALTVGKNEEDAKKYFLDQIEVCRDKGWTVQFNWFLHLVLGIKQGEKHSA

Take `Nc1cc(C(F)(F)F)c(-c2cc(C3(CN4CCOCC4)CC3)nc(N3CCOCC3)n2)cn1` [Compound S-8, 5-(2-morpholino-6-(1-(morpholinomethyl)cyclopropyl)pyrimidin-4-yl)-4-(trifluoromethyl)pyridin-2-amine]: the IC50 with NIH3T3 cells is greater than 10000 nM.

`Nc1cc(C(F)(F)F)c(-c2cc(C3(C(=O)N4CCCCC4)CC3)nc(N3CCOCC3)n2)cn1` [Compound S-7]: the IC50 in the assay with NIH3T3 cells was greater than 10000 nM.

For `CS(=O)(=O)C1(c2cc(-c3ccc(N)nc3)nc(N3CCOCC3)n2)CC1` [Compound S-40], the IC50 in assay [1] (Table 2, read-out: PI3K-α/nM (IC50 of inhibitory activity against PI3K-α kinase)) was 92 nM; in assay [2], 465 nM; in the assay with MCF-7 cells, 355 nM.

As for `C[C@H]1COCCN1c1nc(-c2cnc(N)cc2C(F)(F)F)cc(C2(S(=O)(=O)c3ccccc3)CCC2)n1` [Compound S-15], the IC50 with NIH3T3 cells lay in the range of 5000 to 10000 nM.

Turning to `CC(C)(c1cc(-c2ccc(N)nc2)nc(N2CCOCC2)n1)S(C)(=O)=O` [Compound S-39], the IC50 in assay [2] is 513 nM; in the assay with MCF-7 cells, 441 nM.

For the compound `CC(C)(O)c1cc(-c2cnc(N)cc2Cl)nc(N2CCOCC2)n1` [Compound S-63], the IC50 turned out to be 21 nM in assay [1] (setting [5]); 228 nM in assay [3]; 158 nM in assay [4]; 428 nM at PI3K-γ kinase (p110γ); 577 nM in assay [2]; 240 nM in the assay with MCF-7 cells.

`CS(=O)(=O)C1(c2cc(-c3cnc(N)cc3C(F)(F)F)nc(N3CCOCC3)c2)CC1` [Comparative compound 1, 4-(1-(methylsulfonyl)cyclopropyl)-6-morpholino-4′-(trifluoromethyl)-2,3′bipyridyl-6′-amine, reference compound]: the IC50 in assay [2] turned out to be 2260 nM; with T47D cells, 1220 nM; in the assay with MCF-7 cells it was 996 nM.

Turning to `CNc1cc(C(F)(F)F)c(-c2cc(C3(S(C)(=O)=O)CC3)nc(N3CCOCC3)n2)cn1` [Compound S-36], the IC50 in the assay on NIH3T3 cells is 3000 to 5000 nM.

Consider `CC(C)(O)c1cc(-c2cnc(N)nc2C(F)(F)F)nc(N2CCOCC2)n1` [Compound S-64], for which the IC50 worked out at 13 nM in assay [1] (setting [5]); 27 nM in assay [3]; 19 nM in assay [4]; 431 nM on PI3K-γ kinase (p110γ); 330 nM in assay [2].

In the case of `C[C@@H]1COCCN1c1nc(-c2cnc(N)cc2C(F)(F)F)cc(C2(S(C)(=O)=O)CC2)n1` [Compound S-5], the IC50 in the assay on NIH3T3 cells is 1000 to 3000 nM.

Turning to `Nc1cc(C(F)(F)F)c(-c2cc(N3CCOCC3)nc(N3CCOCC3)n2)cn1` [BKM-120, reference compound], in assay [2], the IC50 stood at 596 nM.

As to `CC(C)(c1cc(-c2cnc(N)cc2C(F)(F)F)nc(N2CCOCC2)n1)n1ncc2ccccc21` [Compound S-56, 5-(6-(2-(1H-indazol-1-yl)propan-2-yl)-2-morpholinopyrimidin-4-yl)-4-(trifluoromethyl)pyridin-2-amine], the IC50 in the assay with NIH3T3 cells is greater than 10000 nM.
